From patent US20250171465A1, “AKT INHIBITORS” (Stablix, Inc., priority 2023, published 2025)

Legend:
Type in all cases: cell-based
[1] = test system: KU1919.1; experiment: Cell Titer Glo (CTG) proliferation assay, KU1919; conditions: Homo sapiens, KU-19-19; KU1919.1 cells, 72.0 hrs.; read-out: AVE CTG Proliferation KU1919.1 72.0 hrs.
Description: (§1) Seed cells in 40 μL of cell culture media into each well of 384-well cell culture plate, spin them at room temperature at 1,000 RPM for 1 minute and then transfer the plates into 37° C. 5% CO2 incubator overnight. Next day, treat cells with 40 nL of diluted compound and return to incubator. After compound treatment for 3 days, Add 30 μL of CellTiter-Glo reagent (Promega) into each well to be detected. Then place the plates at room temperature for 30 min followed by reading on EnVision. Inhibition activity calculated as % DMSO=100×(LumSample-Lum low control)/(Lum high control-Lum low control) where high control is from cells treated with 0.1% DMSO and Low control obtained from PBS only. Use XLFit (equation 201) to calculate IC50 (A+ ((B−A)/(1[…]((x/C)^D)))) where A: Bottom, B: Top, C: IC50, D: Slope.

[2] = test system: MDAMB231.1; experiment: Cell Titer Glo (CTG) proliferation assay, MDA-MB-231; conditions: Homo sapiens, MDA-MB-231; MDAMB231.1 cells, 72 hrs.; read-out: AVE CTG Proliferation MDAMB231.1 72 hrs.
Description: as §1

[3] = test system: MDAMB468.1; experiment: Cell Titer Glo (CTG) proliferation assay, MDA-MB-468; conditions: Homo sapiens, MDA-MB-468; MDAMB468.1 cells, 72.0 hrs.; read-out: AVE CTG Proliferation MDAMB468.1 72.0 hrs.
Description: as §1

SMILES | IC50 [1] | IC50 [2] | IC50 [3]
NC1(C(=O)N[C@@H](CCN2CCN(C(=O)CN3CCC(OC4CCN(C(=O)[C@H](NC(=O)c5cc(C6CCCN(C(=O)C7CC7)C6)ccc5F)C5CCCCC5)CC4)CC3)CC2)c2ccc(Cl)cc2)CCN(c2ncnc3[nH]ccc23)CC1 (stereo partly shown) [Compound I-224] | 1 to 5 µM | 1 to 5 µM | 1 to 5 µM
NC1(C(=O)N[C@@H](CCN2CCN(C(=O)CN3CCC(OC4CCN(C(=O)[C@H](NC(=O)c5cc(C6CCCN(C(=O)CNCc7ccc(F)cc7F)C6)ccc5F)C5CCCCC5)CC4)CC3)CC2)c2ccc(Cl)cc2)CCN(c2ncnc3[nH]ccc23)CC1 (stereo partly shown) [Compound I-225] | 1 to 5 µM | – | 1 to 5 µM
NC1(C(=O)N[C@@H](CCN2CCN(C(=O)CN3CCC(OC4CCN(C(=O)[C@H](NC(=O)c5cc(C6CN(C(=O)CNCc7ccc(F)cc7F)C6)ccc5F)C5CCCCC5)CC4)CC3)CC2)c2ccc(Cl)cc2)CCN(c2ncnc3[nH]ccc23)CC1 [Compound I-226] | 0.5 to 1 µM | 1 to 5 µM | 1 to 5 µM
NC1(C(=O)N[C@@H](CCN2CCN(C(=O)CN3CCC(OC4CCN(C(=O)[C@H](NC(=O)c5cc(C6CN(C(=O)C7CC7)C6)ccc5F)C5CCCCC5)CC4)CC3)CC2)c2ccc(Cl)cc2)CCN(c2ncnc3[nH]ccc23)CC1 [Compound I-227] | 1 to 5 µM | 1 to 5 µM | 1 to 5 µM
NC1(C(=O)N[C@@H](CCN2CCN(C(=O)CN3CCC(OC4CCN(C(=O)[C@H](NC(=O)c5ccc(C6CN(C(=O)CNCc7ccc(F)cc7F)C6)cc5)C5CCCCC5)CC4)CC3)CC2)c2ccc(Cl)cc2)CCN(c2ncnc3[nH]ccc23)CC1 [Compound I-230] | 1 to 5 µM | 1 to 5 µM | 1 to 5 µM
N[C@@H](C(=O)N1CCC(OC2CCN(CC(=O)N3CCN(CC[C@H](NC(=O)C4(N)CCN(c5ncnc6[nH]ccc56)CC4)c4ccc(Cl)cc4)CC3)CC2)CC1)C1CCCCC1 [Compound I-235] | > 10 µM | > 10 µM | > 10 µM
NC1(C(=O)N[C@@H](CCN2CCN(C(=O)CN3CCC(OC4CCN(C(=O)[C@H](NC(=O)c5cccc(C6CN(C(=O)C7CC7)C6)c5)C5CCCCC5)CC4)CC3)CC2)c2ccc(Cl)cc2)CCN(c2ncnc3[nH]ccc23)CC1 [Compound I-240] | 1 to 5 µM | 1 to 5 µM | 1 to 5 µM
NC1(C(=O)N[C@@H](CCN2CCN(C(=O)CN3CCC(OC4CCN(C(=O)[C@H](NC(=O)c5cccc(C6CN(C(=O)CNC7CC7)C6)c5)C5CCCCC5)CC4)CC3)CC2)c2ccc(Cl)cc2)CCN(c2ncnc3[nH]ccc23)CC1 [Compound I-241] | 1 to 5 µM | 5 to 10 µM | 1 to 5 µM
NC1(C(=O)N[C@@H](CCN2CCC(OC3CCN(C(=O)c4cccc(C5CCCN(C(=O)CNCc6ccc(F)cc6F)C5)c4)CC3)CC2)c2ccc(Cl)cc2)CCN(c2ncnc3[nH]ccc23)CC1 (stereo partly shown) [Compound I-253] | 1 to 5 µM | – | 1 to 5 µM
NC1(C(=O)N[C@@H](CCN2CCN(C(=O)CN3CCC(OC4CCN(C(=O)c5cccc(C6CCCN(C(=O)C7CC7)C6)c5)CC4)CC3)CC2)c2ccc(Cl)cc2)CCN(c2ncnc3[nH]ccc23)CC1 (stereo partly shown) [Compound I-255] | > 10 µM | – | > 10 µM
NC1(C(=O)N[C@@H](CCN2CCN(C(=O)CN3CCC(OC4CCN(C(=O)c5cccc(C6CCCN(C(=O)CNCc7ccc(F)cc7F)C6)c5)CC4)CC3)CC2)c2ccc(Cl)cc2)CCN(c2ncnc3[nH]ccc23)CC1 (stereo partly shown) [Compound I-256] | 5 to 10 µM | – | 5 to 10 µM
NC1(C(=O)N[C@@H](CCN2CCN(C(=O)CN3CCC(OC4CCN(C(=O)c5cccc(C6CCCN(C(=O)CNC7CC7)C6)c5)CC4)CC3)CC2)c2ccc(Cl)cc2)CCN(c2ncnc3[nH]ccc23)CC1 (stereo partly shown) [Compound I-257] | > 10 µM | – | > 10 µM
CCc1cccc(-c2cnc(C(=O)NCCOCCNCC[C@H](NC(=O)C3(N)CCN(c4ncnc5[nH]ccc45)CC3)c3ccc(Cl)cc3)c(NC(=O)OC(C)(C)C)c2)c1 [Compound I-301] | 1 to 5 µM | – | 1 to 5 µM
CCc1cccc(-c2cnc(C(=O)N3CCC(OC4CCN(CC(=O)NCCNC[C@@H](C(=O)N5CCN(c6ccnc7c6[C@H](C)C[C@H]7O)CC5)c5ccc(Cl)cc5)CC4)CC3)c(NC(=O)OC(C)(C)C)c2)c1 [Compound I-304] | 1 to 5 µM | – | 1 to 5 µM
C[C@@H]1C[C@@H](O)c2ncnc(N3CCN(C(=O)[C@H](CNCCNC(=O)CN4CCC(CN5CCNCC5)CC4)c4ccc(Cl)cc4)CC3)c21 [Compound I-328] | > 10 µM | – | > 10 µM
